For one test, the target named is T1, Syk (Homo sapiens, UniProt P43405).
T1 construct: purchased Promega
As to the kind of experiment: Syk Biochemical Assay (ADP-Glo luminescence). The note with it: ATP 40 μM final, 60 minutes, read-out: SYK Biochem IC50. In general terms: ADP-Glo first removes unused ATP, then detects ADP through luciferase.

Test [1] deals with Ba/F3-WT (wild type) cells. The test is described as follows: Ba/F3 Proliferation Assay, Ba/F3-WT (wild type) cells with mIL-3 (Resazurin). The format is cell-based. To be noted: Mus musculus, BaF3, 48 h, Ba/F3-WT cells +mIL-3, 48-hour incubation. In general terms: Alamar Blue is a resazurin reagent that responds to reducing activity.
A further test has as its target T2, Ba/F3-Syk cells (Homo sapiens, UniProt P43405).
T2 construct: fused on or other part: Possible but unprinted fusion partner: TEL (ETV6), the usual partner for Ba/F3 lines transformed by Syk; Nothing on a partner is printed
The test is described as follows: Ba/F3 Proliferation Assay, Ba/F3-Syk cells (Resazurin). The class given is cell-based. The note with it: 48-hour incubation.

One may read the IC50 as the concentration that gives 50% inhibition. As usually defined, the EC50 is the concentration giving half of the maximal effect. Lower therefore signals higher potency in that assay. For the molecule `CC1(C)CNC[C@@H](COc2cc(-c3cnn(C4CC4)c3)cc3ncccc23)O1` [Compound 3.8, 7-(1-cyclopropyl-1H-pyrazol-4-yl)-5-{[(2S)-6,6-dimethylmorpholin-2-yl]methoxy}quinoline], the concentration for half-maximal inhibition (IC50) at Syk came to 23.7 nM. In addition, the values for the EC50 (in test [1]; at Ba/F3-Syk cells) were 1970 nM and 50.9 nM, respectively.

In the case of `CC(C)(C)n1cc(-c2cc(OC[C@@H]3CNCCCO3)c3cccnc3c2)cn1` [Compound 3.14, 7-(1-tert-butyl-1H-pyrazol-4-yl)-5-{[(2S)-1,4-oxazepan-2-yl]methoxy}quinoline], the half-maximal inhibitory concentration (IC50) on Syk amounted to 57.1 nM. Moreover, the half-maximal effective concentration (EC50) in test [1] came to 6490 nM; at Ba/F3-Syk cells it was 54.5 nM.

With `CC(C)(C)n1ccc(-c2cc(OC[C@@H]3CNCCO3)c3cccnc3c2)c1` [Compound 3.15, 7-(1-tert-butyl-1H-pyrrol-3-yl)-5-{[(2S)-morpholin-2-yl]methoxy}quinoline], the concentration for half-maximal inhibition (IC50) on Syk came out at 39.6 nM. Moreover, the EC50 is 5840 nM in test [1] and 30.4 nM at Ba/F3-Syk cells.

For the molecule `Cn1ccc(-c2cc(OC[C@@H]3CNCC4(CC4)O3)c3cccnc3c2)c1` [Compound 3.17, 7-(1-methyl-1H-pyrrol-3-yl)-5-{[(5S)-4-oxa-7-azaspiro[2.5]octan-5-yl]methoxy}quinoline], at Syk, the half-maximal inhibitory concentration (IC50) was 43.7 nM. Further, the results for the EC50 (in test [1]; at Ba/F3-Syk cells) were 2220 nM and 51.8 nM, respectively.

Regarding `Cn1cc(-c2cc(OC[C@@H]3CNCC4(CC4)O3)c3cccnc3c2)cn1` [Compound 3.19, 7-(1-methyl-1H-pyrazol-4-yl)-5-{[(5S)-4-oxa-7-azaspiro[2.5]octan-5-yl]methoxy}quinoline], on Syk, the IC50 came out at 51.1 nM. Also, the results for the EC50 (in test [1]; on Ba/F3-Syk cells) were 6800 nM and 99.1 nM, respectively.

As to `CC(C)n1cc(-c2cc(OC[C@@H]3CNC[C@@H](C)O3)c3cccnc3c2)cn1` [Compound 3.23, 5-{[(2S,6R)-6-methylmorpholin-2-yl]methoxy}-7-[1-(propan-2-yl)-1H-pyrazol-4-yl]quinoline], the IC50 on Syk is 12.6 nM. In addition, the values for the EC50 (in test [1]; at Ba/F3-Syk cells) were 941 nM and 12.1 nM, respectively.

On to `C[C@@H]1CNC[C@@H](COc2cc(-c3ccn(C)c3)cc3ncccc23)O1` [Compound 3.24, 7-(1-methyl-1H-pyrrol-3-yl)-5-{[(2S,6R)-6-methylmorpholin-2-yl]methoxy}quinoline], for which the IC50 at Syk turned out to be 16.4 nM. Also, the 50% effective concentration (EC50) in test [1] is 2260 nM; on Ba/F3-Syk cells, 28.2 nM.

With `FC(F)Cn1ccc(-c2cc3ncccc3c(OC[C@@H]3CNCCO3)n2)c1` [Compound 6.5, 7-[1-(2,2-difluoroethyl)-1H-pyrrol-3-yl]-5-{[(2S)-morpholin-2-yl]methoxy}-1,6-naphthyridine], on Syk, the half-maximal inhibitory concentration (IC50) came out at 14.2 nM. In addition, the EC50 in test [1] is 2140 nM; at Ba/F3-Syk cells, 63 nM.

On to `COCCn1ccc(-c2cc3ncccc3c(OC[C@@H]3CNCCO3)n2)c1` [Compound 6.10, 7-[1-(2-methoxyethyl)-1H-pyrrol-3-yl]-5-{[(2S)-morpholin-2-yl]methoxy}-1,6-naphthyridine], for which the IC50 on Syk came to 21.3 nM. For the same molecule, the 50% effective concentration (EC50) in test [1] came to 1980 nM; on Ba/F3-Syk cells it was 106 nM.

For the molecule `c1cnc2cc(-c3ccn(C4COC4)c3)nc(OC[C@@H]3CNCCO3)c2c1` [Compound 6.11, 5-{[(2S)-morpholin-2-yl]methoxy}-7-[1-(oxetan-3-yl)-1H-pyrrol-3-yl]-1,6-naphthyridine], the concentration for half-maximal inhibition (IC50) at Syk amounted to 24.6 nM. The EC50 in test [1] stood at 1680 nM; on Ba/F3-Syk cells, 30.7 nM.

On to `CC1(C)CNC[C@@H](COc2nc(-c3ccn(CC(F)F)c3)cc3ncccc23)O1` [Compound 6.13, 7-[1-(2,2-difluoroethyl)-1H-pyrrol-3-yl]-5-{[(2S)-6,6-dimethylmorpholin-2-yl]methoxy}-1,6-naphthyridine], for which the IC50 on Syk was determined as 14.6 nM. Further, the EC50 is 2050 nM in test [1] and 21.8 nM at Ba/F3-Syk cells.

For the molecule `COCCn1ccc(-c2cc3ncccc3c(OC[C@@H]3CNCC(C)(C)O3)n2)c1` [Compound 6.16, 5-{[(2S)-6,6-dimethylmorpholin-2-yl]methoxy}-7-[1-(2-methoxyethyl)-1H-pyrrol-3-yl]-1,6-naphthyridine], the IC50 on Syk was found to be 28.4 nM. Further, the figures for the EC50 (in test [1]; on Ba/F3-Syk cells) were 3120 nM and 41.9 nM, respectively.

As for `CC1(C)CNC[C@@H](COc2nc(-c3cnn(CC(F)F)c3)cc3ncccc23)O1` [Compound 6.20, 7-[1-(2,2-difluoroethyl)-1H-pyrazol-4-yl]-5-{[(2S)-6,6-dimethylmorpholin-2-yl]methoxy}-1,6-naphthyridine], the half-maximal inhibitory concentration (IC50) on Syk came to 9.1 nM. The EC50 is 2180 nM in test [1] and 32.1 nM at Ba/F3-Syk cells.

With `CC(C)n1ccc(-c2cc3ncccc3c(OC[C@@H]3CNCC4(CC4)O3)n2)c1` [Compound 6.22, 5-{[(5S)-4-oxa-7-azaspiro[2.5]octan-5-yl]methoxy}-7-[1-(propan-2-yl)-1-H-pyrrol-3-yl]-1,6-naphthyridine], the 50% inhibitory concentration (IC50) at Syk is 14.3 nM. Further, the figures for the half-maximal effective concentration (EC50) (in test [1]; at Ba/F3-Syk cells) were 2090 nM and 11.2 nM, respectively.

With `COCCn1ccc(-c2cc3ncccc3c(OC[C@@H]3CNCC4(CC4)O3)n2)c1` [Compound 6.23, 7-[1-(2-methoxyethyl)-1H-pyrrol-3-yl]-5-{[(5S)-4-oxa-7-azaspiro[2.5]octan-5-yl]methoxy}-1,6-naphthyridine], at Syk, the half-maximal inhibitory concentration (IC50) turned out to be 55.9 nM. Besides, the figures for the EC50 (in test [1]; on Ba/F3-Syk cells) were 2100 nM and 28.4 nM, respectively.

As for `CC1(C)CNC[C@@H](COc2nc(-c3ccn(C4COC4)c3)cc3ncccc23)O1` [Compound 6.25, 5-{[(2S)-6,6-dimethylmorpholin-2-yl]methoxy}-7-[1-(oxetan-3-yl)-1H-pyrrol-3-yl]-1,6-naphthyridine], the half-maximal inhibitory concentration (IC50) on Syk amounted to 20.5 nM. The EC50 in test [1] is 1760 nM; on Ba/F3-Syk cells it was 8.6 nM.

For `C[C@@H](Oc1nc(-c2ccn(CC(F)F)c2)cc2ncccc12)[C@@H]1CNCCO1` [Compound 6.30, 7-[1-(2,2-difluoroethyl)-1H-pyrrol-3-yl]-5-[(1R)-1-[(2S)-morpholin-2-yl]ethoxy]-1,6-naphthyridine], at Syk, the 50% inhibitory concentration (IC50) turned out to be 14.1 nM. Also, the concentration giving a half-maximal response (EC50) in test [1] was found to be 1390 nM; on Ba/F3-Syk cells, 27.7 nM.

Consider `CC1(C)CNC[C@@H](COc2cc(-c3ccn(CC(F)F)c3)cc3ncccc23)O1` [Compound 7.6, 7-[1-(2,2-difluoroethyl)-1H-pyrrol-3-yl]-5-{[(2S)-6,6-dimethylmorpholin-2-yl]methoxy}quinoline], for which the IC50 at Syk came out at 17.6 nM. The EC50 in test [1] came out at 1770 nM; on Ba/F3-Syk cells, 28.5 nM.

Turning to `CC(C)n1ccc(-c2cc(OC[C@@H]3CNCCCO3)c3cccnc3c2)c1` [Compound 7.10, 5-{[(2S)-1,4-oxazepan-2-yl]methoxy}-7-[1-(propan-2-yl)-1H-pyrrol-3-yl]quinoline], on Syk, the half-inhibitory concentration (IC50) came out at 36.7 nM. For the same molecule, the EC50 in test [1] came out at 3880 nM; on Ba/F3-Syk cells it was 44.7 nM.

Regarding `c1cnc2cc(-c3ccn(C4COC4)c3)cc(OC[C@@H]3CNCCO3)c2c1` [Compound 7.12, 5-{[(2S)-morpholin-2-yl]methoxy}-7-[1-(oxetan-3-yl)-1H-pyrrol-3-yl]quinoline], the IC50 at Syk amounted to 29.3 nM. The EC50 in test [1] was 1560 nM; at Ba/F3-Syk cells, 23.3 nM.

With `COCCn1ccc(-c2cc(OC[C@@H]3CNCC4(CC4)O3)c3cccnc3c2)c1` [Compound 7.14, 7-[1-(2-methoxyethyl)-1H-pyrrol-3-yl]-5-{[(5S)-4-oxa-7-azaspiro[2.5]octan-5-yl]methoxy}quinoline], the IC50 on Syk was 51.2 nM. Also, the EC50 in test [1] worked out at 3210 nM; at Ba/F3-Syk cells it was 22.5 nM.
